Where a SMILES comes first, the peptide text is derived from it. Bridges are numbered along the chain shown (N, C = ends). [ ]: non-standard residue; d: D form. The star is where a group is joined. hPhe(3-Cl-4-CF3) = N[C@@H](CCc1ccc(C(F)(F)F)c(Cl)c1)C(=O)O; NPrPhe(4-CF3) = CCCN[C@@H](Cc1ccc(C(F)(F)F)cc1)C(=O)O; NMeGly(cPent) = CN[C@H](C(=O)O)C1CCCC1; NMeD = CN[C@@H](CC(=O)O)C(=O)O; NMeAbu = CC[C@H](NC)C(=O)O; Morpholide = C1CN(*)CCO1; Ac5c = NC1(C(=O)O)CCCC1; Sar = CNCC(=O)O
Assays:
[1] = molecular target: GDP-bound HRAS wild-type protein (Homo sapiens, UniProt P01112); assay: Binding to HRAS by surface plasmon resonance (SPR), Single Cycle Kinetics
Chain of GDP-bound HRAS wild-type protein (P01112 whole entry): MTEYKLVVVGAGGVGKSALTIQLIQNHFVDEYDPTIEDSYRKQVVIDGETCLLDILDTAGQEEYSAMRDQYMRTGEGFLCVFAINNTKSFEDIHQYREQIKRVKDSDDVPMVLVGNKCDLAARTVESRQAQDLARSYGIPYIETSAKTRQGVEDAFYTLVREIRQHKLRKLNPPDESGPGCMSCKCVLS

[2] = molecular target: GDP-bound NRAS wild-type protein (Homo sapiens, UniProt P01111); assay: Binding to NRAS by surface plasmon resonance (SPR), Single Cycle Kinetics
Chain of GDP-bound NRAS wild-type protein (P01111 whole entry): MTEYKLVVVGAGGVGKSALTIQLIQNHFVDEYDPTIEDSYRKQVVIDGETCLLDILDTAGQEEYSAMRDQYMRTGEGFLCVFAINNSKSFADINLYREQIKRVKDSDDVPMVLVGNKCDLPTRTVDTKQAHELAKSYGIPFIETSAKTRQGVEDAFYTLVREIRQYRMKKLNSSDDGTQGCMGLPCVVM

[3] = KD ratio HRAS/KRAS, class symbols
[4] = KD ratio NRAS/KRAS, class symbols
[5] = GDP-bound HRAS wild-type vs GDP-bound KRAS wild-type, SPR
[6] = GDP-bound NRAS wild-type vs GDP-bound KRAS wild-type, SPR

**Q.** For CCC[C@H]1C(=O)N[C@@H]([C@@H](C)CC)C(=O)N(C)CC(=O)N(C)[C@H]2C/C=C\CCN(C2=O)[C@@H](Cc2ccc(C(F)(F)F)cc2)C(=O)N(C)CC(=O)N[C@@H](CCc2ccc3sc(F)c(C)c3c2)C(=O)N2C[C@H](OCC)C[C@H]2C(=O)NC2(CC(C)(C)C2)C(=O)N(C)[C@@H](C(CC)CC)C(=O)N(C)[C@H](C(=O)N(C)C)CC(=O)N1C [PP2892], which “HRAS/KRAS (ratio of KD value with respect to GDP-bound HRAS wild-type protein to KD value with respect to KRAS)” value [1, 3] is on record?
**A.** The value was “A (a compound having 10 or more and less than 20 is denoted as A)”.

**Q.** And the “NRAS/KRAS (ratio of KD value with respect to GDP-bound NRAS wild-type protein to KD value with respect to KRAS)” value [2, 4]?
**A.** The value was “A (a compound having 10 or more and less than 20 is denoted as A)”.

**Q.** CCCN1C(=O)CN(C)C(=O)CN(C)C(=O)[C@H]([C@@H](C)CC)NC(=O)[C@H](CC)N(C)C(=O)C[C@@H](C(=O)N2CCOCC2)N(C)C(=O)[C@H](C2CCCC2)N(C)C(=O)C2(CCCC2)NC(=O)[C@@H]2CCCN2C(=O)[C@H](CCc2ccc(C(F)(F)F)c(Cl)c2)NC(=O)CN(C)C(=O)[C@@H]1Cc1ccc(C(F)(F)F)cc1 [PP0190] ([NMeAbu]I[Sar][Sar][NPrPhe(4-CF3)][Sar][hPhe(3-Cl-4-CF3)]P[Ac5c][NMeGly(cPent)][NMeD]-Morpholide; lactam N-11) was tested. Which “HRAS/KRAS (ratio of KD for GDP-bound HRAS wild-type to KD for KRAS)” value ([1]; KD ratio HRAS/KRAS, SPR) did it give?
**A.** Its value is “B (a compound having 3 or more and less than 10 is denoted as B)”.

**Q.** What about the “NRAS/KRAS (ratio of KD for GDP-bound NRAS wild-type to KD for KRAS)” value ([2]; KD ratio NRAS/KRAS, SPR) of the same molecule?
**A.** The value was “B (a compound having 3 or more and less than 10 is denoted as B)”.

**Q.** Which “HRAS/KRAS (ratio of KD value with respect to GDP-bound HRAS wild-type protein to KD value with respect to KRAS)” value [1, 3] does the source give for CCC[C@H]1C(=O)N[C@@H]([C@@H](C)CC)C(=O)N(C)CC(=O)N(C)[C@H]2C/C=C\CCN(C2=O)[C@@H](Cc2ccc(C)cc2)C(=O)N(C)CC(=O)N[C@@H](CCc2ccc(Cl)c(Cl)c2)C(=O)N2C[C@H](OC3CCC3)C[C@H]2C(=O)NC2(CC(C)(C)C2)C(=O)N(C)[C@@H](C(CC)CC)C(=O)N(C)[C@H](C(=O)N(C)C)CC(=O)N1C [PP2644] here?
**A.** The value was “A (a compound having 10 or more and less than 20 is denoted as A)”.

**Q.** And the “NRAS/KRAS (ratio of KD value with respect to GDP-bound NRAS wild-type protein to KD value with respect to KRAS)” value [2, 4]?
**A.** The value was “AA (a compound having 20 or more is denoted as AA)”.

**Q.** What does the source list for CC[C@H](C)[C@@H]1NC(=O)[C@H](CC2CC2)N(C)C(=O)C[C@@H](C(=O)N(C)C)N(C)C(=O)[C@H](C2CCCC2)N(C)C(=O)C2(CCC2)NC(=O)[C@@H]2C[C@@H](C)CN2C(=O)[C@H](CCc2ccc(C(F)(F)F)c(OC)c2)NC(=O)CN(C)C(=O)[C@H](Cc2ccc(C)cc2)N2CC/C=C\C[C@@H](C2=O)N(C)C(=O)CN(C)C1=O [PP1863]?
**A.** HRAS/KRAS (ratio of KD value for HRAS to KD value for KRAS) [1, 5]: A (a compound having 10 or more and less than 20 is denoted as A); NRAS/KRAS (ratio of KD value for NRAS to KD value for KRAS) [2, 6]: A (a compound having 10 or more and less than 20 is denoted as A)

**Q.** For CCCOC[C@H]1C(=O)N[C@@H]([C@@H](C)CC)C(=O)N(C)CC(=O)N(C)[C@H]2C/C=C\CCN(C2=O)[C@@H](Cc2ccc(C(F)(F)F)cc2)C(=O)N(C)CC(=O)N[C@@H](CCc2ccc(C(F)(F)F)c(OC)c2)C(=O)N2C[C@H](OCC)C[C@H]2C(=O)NC2(CC(C)(C)C2)C(=O)N(C)[C@@H](C2CCCC2)C(=O)N(C)[C@H](C(=O)N(C)C)CC(=O)N1C [PP1657], which “HRAS/KRAS (ratio of KD value for HRAS to KD value for KRAS)” value [1, 5] is on record?
**A.** Its value is “B (a compound having 3 or more and less than 10 is denoted as B)”.

**Q.** What about the “NRAS/KRAS (ratio of KD value for NRAS to KD value for KRAS)” value [2, 6] of the same molecule?
**A.** The value was “A (a compound having 10 or more and less than 20 is denoted as A)”.

**Q.** Which results are given for CCC(CC)[C@H]1C(=O)N(C)[C@H](C(=O)N(C)C)CC(=O)N(C)[C@@H](COC)C(=O)N[C@@H]([C@@H](C)CC)C(=O)N(C)CC(=O)N(C)[C@H]2C/C=C\CCN(C2=O)[C@@H](CC2CCC(F)(F)CC2)C(=O)N(C)CC(=O)N[C@@H](CCc2ccc(C(F)(F)F)c(Cl)c2)C(=O)N2C[C@@H](C)C[C@H]2C(=O)NC2(CC(C)(C)C2)C(=O)N1C [PP2454]?
**A.** HRAS/KRAS (ratio of KD value with respect to HRAS to KD value with respect to KRAS) ([1]; SPR, GDP-bound HRAS wild-type vs GDP-bound KRAS wild-type): A (a compound having 10 or more and less than 20 is denoted as A); NRAS/KRAS (ratio of KD value with respect to NRAS to KD value with respect to KRAS) ([2]; SPR, GDP-bound NRAS wild-type vs GDP-bound KRAS wild-type): AA (a compound having 20 or more is denoted as AA)

**Q.** What does the source list for CCO[C@@H]1C[C@H]2C(=O)NC3(CC(C)(C)C3)C(=O)N(C)[C@@H](C3CCCC3)C(=O)N(C)[C@H](C(=O)N(C)C)CC(=O)N(C)[C@H]3CCCCC/C=C/c4ccc(cc4)C[C@@H](C(=O)N(C)CC(=O)N[C@@H](CCc4ccc(Cl)c(Cl)c4)C(=O)N2C1)N1CC/C=C\C[C@@H](C1=O)N(C)C(=O)CN(C)C(=O)[C@H]([C@@H](C)CC)NC3=O [PP3057]?
**A.** HRAS/KRAS (ratio of KD value with respect to GDP-bound HRAS wild-type protein to KD value with respect to KRAS) ([1]; KD ratio HRAS/KRAS, SPR, GDP-bound wild-type proteins): B (a compound having 3 or more and less than 10 is denoted as B); NRAS/KRAS (ratio of KD value with respect to GDP-bound NRAS wild-type protein to KD value with respect to KRAS) ([2]; KD ratio NRAS/KRAS, SPR, GDP-bound wild-type proteins): A (a compound having 10 or more and less than 20 is denoted as A)

From patent US20250230193A1, “CYCLIC COMPOUND HAVING SELECTIVE KRAS INHIBITORY EFFECT ON HRAS AND NRAS” (CHUGAI SEIYAKU KABUSHIKI KAISHA, priority 2022, published 2025)
